In patent US8962671B2, “Amino-substituted 3-heteroaroylamino-propionic acid derivatives and their use as pharmaceuticals” (Sanofi, priority 2011, dated 2015):
pIC50: −log10 of the molar value.

Molecular target: T1, Recombinant human cathepsin A (Homo sapiens, UniProt P10619)
T1 construct: Recombinant human cathepsin A (residues 29-480, with a C-terminal 10-His tag); 10-His (C); purchased R&D Systems 1049-SE
T1 sequence (P10619 29-326 limits assumed): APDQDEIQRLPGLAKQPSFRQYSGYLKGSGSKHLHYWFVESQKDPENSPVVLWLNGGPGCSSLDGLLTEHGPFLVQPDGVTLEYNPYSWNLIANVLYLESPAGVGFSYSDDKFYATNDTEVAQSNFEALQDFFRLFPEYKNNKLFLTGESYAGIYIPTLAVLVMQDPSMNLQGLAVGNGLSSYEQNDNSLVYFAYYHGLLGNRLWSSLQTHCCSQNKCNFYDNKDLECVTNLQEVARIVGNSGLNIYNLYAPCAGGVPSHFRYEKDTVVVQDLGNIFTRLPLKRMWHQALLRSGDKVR
T1 sequence (P10619 327-480 limits assumed): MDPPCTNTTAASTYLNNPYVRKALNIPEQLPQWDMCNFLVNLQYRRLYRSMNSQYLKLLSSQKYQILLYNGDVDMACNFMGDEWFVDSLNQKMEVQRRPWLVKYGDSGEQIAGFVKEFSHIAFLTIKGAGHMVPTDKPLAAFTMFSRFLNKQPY
Experiment: Cathepsin A inhibitory activity
Format: biochemical
Details: activated recombinant human cathepsin A 833 ng/ml, Bodipy FL-labeled bradykinin 2 μM, pH 5.5, 15 min room temperature
Description: a) Cathepsin a Inhibitory Activity
Recombinant human cathepsin A (residues 29-480, with a C-terminal 10-His tag; R&D Systems, #1049-SE) was proteolytically activated with recombinant human cathepsin L (R&D Systems, #952-CY). Briefly, cathepsin A was incubated at 10 μg/ml with cathepsin L at 1 μg/ml in activation buffer (25 mM 2-(morpholin-4-yl)-ethanesulfonic acid (MES), pH 6.0, containing 5 mM dithiothreitol (DTT)) for 15 min at 37° C. Cathepsin L activity was then stopped by the addition of the cysteine protease inhibitor E-64 (N-(trans-epoxysuccinyl)-L-leucine-4-guanidinobutylamide; Sigma-Aldrich, #E3132; dissolved in activation buffer/DMSO) to a final concentration of 10 μM.
The activated cathepsin A was diluted in assay buffer (25 mM MES, pH 5.5, containing 5 mM DTT) and mixed with the test compound (dissolved in assay buffer containing (v/v) 3% DMSO) or, in the control experiments, with the vehicle in a multiple assay plate. After incubation for 15 min at room temperature, as substrate then bradykinin carrying an N-Terminal®Bodipy FL (4,4-difluoro-5,7-dimethyl-4-bora-3a,4a-diaza-s-indacene-3-propionyl) label (JPT Peptide Technologies GmbH; dissolved in assay buffer) was added to the mixture. The final concentration of cathepsin A was 833 ng/ml and the final concentration of labeled bradykinin 2 μM. After incubation for 15 min at room temperature the reaction was stopped by the addition of stop buffer (130 mM 2-(4-(2-hydroxy-ethyl)-piperazin-1-yl)-ethanesulfonic acid, pH 7.4, containing (v/v) 0.013%®Triton X-100, 0.13% Coating Reagent 3 (Caliper Life Sciences), 6.5% DMSO and 20 μM ebelactone B (Sigma, #E0886)).
Uncleaved substrate and product were then separated by a microfluidic capillary electrophoresis on a LabChip® 3000 Drug Discovery System (12-Sipper-Chip; Caliper Life Sciences) and quantified by determination of the respective peak areas. Substrate turnover was calculated by dividing product peak area by the sum of substrate and product peak areas, and the enzyme activity and the inhibitory effect of the test compound thus quantified. From the percentage of inhibition of cathepsin A activity observed with the test compound at several concentrations, the inhibitory concentration IC50, i.e. the concentration which effects 50% inhibition of enzyme activity was, calculated.

| pIC50 | SMILES |
| --- | --- |
| 7.60 | Cc1ccccc1[C@H](CC(=O)O)NC(=O)c1cc(NS(C)(=O)=O)n(-c2ccccc2)n1 [Example 11, (S)-3-[(5-Methanesulfonylamino-1-phenyl-1H-pyrazole-3-carbonyl)-amino]-3-o-tolyl-propionic acid] |
| 7.52 | Cc1ccccc1[C@H](CC(=O)O)NC(=O)c1cc(NC(=O)c2ccccc2)n(-c2ccccc2)n1 [Example 66, (S)-3-[(5-Benzoylamino-1-phenyl-1H-pyrazole-3-carbonyl)-amino]-3-o-tolyl-propionic acid] |
| 7.25 | CN(C(=O)c1ccccc1)c1cc(C(=O)N[C@@H](CC(=O)O)c2cccc(Cl)c2)nn1-c1ccccc1 [Example 71, (S)-3-{[5-(Benzoyl-methyl-amino)-1-phenyl-1H-pyrazole-3-carbonyl]-amino}-3-(3-chloro-phenyl)-propionic acid] |
| 5.45 | N#Cc1cccc([C@H](CC(=O)O)NC(=O)c2cc3[nH]c4ccccc4n3n2)c1 [Example 37, (S)-3-[(4H-Benzo[4,5]imidazo[1,2-b]pyrazole-2-carbonyl)-amino]-3-(3-cyano-phenyl)-propionic acid] |
| 5.31 | O=C(Nc1cc(C(=O)NCC(C(=O)O)c2ccccc2)nn1-c1ccccc1)c1ccccc1 (stereo not shown) [Example 82, 3-[(5-Benzoylamino-1-phenyl-1H-pyrazole-3-carbonyl)-amino]-2-phenyl-propionic acid] |
| 5.76 | O=C(O)CC(NC(=O)c1cc2[nH]c3ccccc3n2n1)c1ccccc1F (stereo not shown) [Example 24, 3-[(4H-Benzo[4,5]imidazo[1,2-b]pyrazole-2-carbonyl)-amino]-3-(2-fluoro-phenyl)-propionic acid] |
| 7.57 | CC(C)(C)C(=O)Nc1cc(C(=O)N[C@@H](CC(=O)O)c2ccc(Cl)cc2Cl)nn1-c1ccccc1 [Example 53, (S)-3-(2,4-Dichloro-phenyl)-3-{[5-(2,2-dimethyl-propionylamino)-1-phenyl-1H-pyrazole-3-carbonyl]-amino}-propionic acid] |
| 5.62 | N#Cc1ccc(C(CC(=O)O)NC(=O)c2cc3[nH]c4ccccc4n3n2)cc1 (stereo not shown) [Example 21, 3-[(4H-Benzo[4,5]imidazo[1,2-b]pyrazole-2-carbonyl)-amino]-3-(4-cyano-phenyl)-propionic acid] |
| 5.91 | O=C(O)C[C@H](NC(=O)c1cc2[nH]c3ccccc3n2n1)c1ccccc1 [Example 41, (S)-3-[(4H-Benzo[4,5]imidazo[1,2-b]pyrazole-2-carbonyl)-amino]-3-phenyl-propionic acid] |
| 6.41 | O=C(O)C[C@H](NC(=O)c1cc2[nH]c3ccccc3n2n1)c1ccccc1Cl [Example 49, (S)-3-[(4H-Benzo[4,5]imidazo[1,2-b]pyrazole-2-carbonyl)-amino]-3-(2-chloro-phenyl)-propionic acid] |
| 7.60 | Cc1ccccc1[C@H](CC(=O)O)NC(=O)c1cc(N)n(-c2ccccc2)n1 [Example 1, (S)-3-[(5-Amino-1-phenyl-1H-pyrazole-3-carbonyl)-amino]-3-o-tolyl-propionic acid] |
| 7.92 | Cc1ccccc1[C@H](CC(=O)O)NC(=O)c1cc(NCC(O)C(C)(C)C)n(-c2ccccc2)n1 (stereo partly drawn) [Example 57, (S)-3-{[5-(2-Hydroxy-3,3-dimethyl-butylamino)-1-phenyl-1H-pyrazole-3-carbonyl]-amino}-3-o-tolyl-propionic acid] |
| 6.70 | Nc1cc(C(=O)NC(CC(=O)O)c2cc(Cl)ccc2Cl)nn1-c1ccccc1F (stereo not shown) [Example 9, 3-{[5-Amino-1-(2-fluoro-phenyl)-1H-pyrazole-3-carbonyl]-amino}-3-(2,5-dichloro-phenyl)-propionic acid] |
| 5.51 | O=C(O)CC(NC(=O)c1cc2[nH]c3ccccc3n2n1)c1cccc(F)c1 (stereo not shown) [Example 23, 3-[(4H-Benzo[4,5]imidazo[1,2-b]pyrazole-2-carbonyl)-amino]-3-(3-fluoro-phenyl)-propionic acid] |
| 6.05 | Cc1ccccc1C(CC(=O)O)NC(=O)c1cc2[nH]c3ccccc3n2n1 (stereo not shown) [Example 35, 3-[(4H-Benzo[4,5]imidazo[1,2-b]pyrazole-2-carbonyl)-amino]-3-o-tolyl-propionic acid] |
| 6.97 | O=C(O)C[C@H](NC(=O)c1cc(NC(=O)c2ccccc2)n(-c2ccccc2)n1)c1ccc(Cl)cc1Cl [Example 67, (S)-3-[(5-Benzoylamino-1-phenyl-1H-pyrazole-3-carbonyl)-amino]-3-(2,4-dichloro-phenyl)-propionic acid] |
| 7.24 | Cc1ccccc1[C@H](CC(=O)O)NC(=O)c1cc(N(C)C(=O)c2ccccc2)n(-c2ccccc2)n1 [Example 63, (S)-3-{[5-(Benzoyl-methyl-amino)-1-phenyl-1H-pyrazole-3-carbonyl]-amino}-3-o-tolyl-propionic acid] |
| 5.29 | CC(C)(CC(=O)O)NC(=O)c1cc2[nH]c3ccccc3n2n1 [Example 43, 3-[(4H-Benzo[4,5]imidazo[1,2-b]pyrazole-2-carbonyl)-amino]-3-methyl-butyric acid] |
| 7.31 | Cc1ccccc1[C@H](CC(=O)O)NC(=O)c1cc(NCC2CC2)n(-c2ccccc2)n1 [Example 50, (S)-3-{[5-(Cyclopropylmethyl-amino)-1-phenyl-1H-pyrazole-3-carbonyl]-amino}-3-o-tolyl-propionic acid] |
| 7.47 | O=C(O)C[C@H](NC(=O)c1cc(NC(=O)c2ccccc2)n(-c2ccccc2)n1)c1ccc(F)cc1 [Example 78, (S)-3-[(5-Benzoylamino-1-phenyl-1H-pyrazole-3-carbonyl)-amino]-3-(4-fluoro-phenyl)-propionic acid] |
| 7.19 | CN(C(=O)c1ccccc1)c1cc(C(=O)N[C@@H](CC(=O)O)c2ccc(Cl)cc2Cl)nn1-c1ccccc1 [Example 64, (S)-3-{[5-(Benzoyl-methyl-amino)-1-phenyl-1H-pyrazole-3-carbonyl]-amino}-3-(2,4-dichloro-phenyl)-propionic acid] |
| 6.99 | Cc1ccc([C@H](CC(=O)O)NC(=O)c2cc(N(C)C(=O)c3ccccc3)n(-c3ccccc3)n2)cc1 [Example 72, (S)-3-{[5-(Benzoyl-methyl-amino)-1-phenyl-1H-pyrazole-3-carbonyl]-amino}-3-p-tolyl-propionic acid] |
| 7.54 | Cc1ccccc1[C@H](CC(=O)O)NC(=O)c1cc(NC(=O)C(C)(C)C)n(-c2ccccc2)n1 [Example 52, (S)-3-{[5-(2,2-Dimethyl-propionylamino)-1-phenyl-1H-pyrazole-3-carbonyl]-amino}-3-o-tolyl-propionic acid] |
| 8.24 | CN(C(=O)c1ccccc1)c1cc(C(=O)N[C@@H](CC(=O)O)c2ccccc2Cl)nn1-c1ccccc1 [Example 70, (S)-3-{[5-(Benzoyl-methyl-amino)-1-phenyl-1H-pyrazole-3-carbonyl]-amino}-3-(2-chloro-phenyl)-propionic acid] |
| 7.76 | Cc1ccccc1[C@H](CC(=O)O)NC(=O)c1cc(N(C)C(=O)C(C)(C)C)n(-c2ccccc2)n1 [Example 55, (S)-3-({5-[(2,2-Dimethyl-propionyl)-methyl-amino]-1-phenyl-1H-pyrazole-3-carbonyl}-amino)-3-o-tolyl-propionic acid] |
| 7.81 | Cc1ccccc1[C@H](CC(=O)O)NC(=O)c1cc(N2CCCC2)n(-c2ccccc2)n1 [Example 6, (S)-3-[(1-Phenyl-5-pyrrolidin-1-yl-1H-pyrazole-3-carbonyl)-amino]-3-o-tolyl-propionic acid] |
| 8.08 | Cc1ccccc1[C@H](CC(=O)O)NC(=O)c1cc(N2CCCC2)n(-c2ccccc2F)n1 [Example 13, (S)-3-{[1-(2-Fluoro-phenyl)-5-pyrrolidin-1-yl-1H-pyrazole-3-carbonyl]-amino}-3-o-tolyl-propionic acid] |
| 5.60 | O=C(O)CC(NC(=O)c1cc2[nH]c3ccccc3n2n1)c1ccc(F)cc1 (stereo not shown) [Example 34, 3-[(4H-Benzo[4,5]imidazo[1,2-b]pyrazole-2-carbonyl)-amino]-3-(4-fluoro-phenyl)-propionic acid] |
